Where a name gives a salt, the structure may show the parent alone.
Key:
[1] = animal data, local administration; cited from earlier work
[2] = cited from earlier work
[3] = Preliminary pharmacokinetics of tizanidine solutions in rabbits (IN, IM, PO); type: in vivo; details: 3.00 mg/kg of tizanidine hydrochloride
Method: Preliminary pharmacokinetic data in rabbits at the dose of 3.00 mg/kg of tizanidine hydrochloride by intranasal (IN), intramuscular (IM), and oral route (PO) were performed to test the intranasal absorption without any enhancer.

[4] = Local tolerability of intranasal aqueous solution; type: in vivo; details: 45.00 mg/mL, pH 4.8
Method: The proposed formulations are calculated for a single puff of 50 µL/nostril.

[5] = pH of the tizanidine hydrochloride solutions; type: physicochemical; details: Tizanidine.HCl aqueous solutions, no excipients

SMILES | activity compared with clonidine [1] | absorption by oral route ([2]; extensive first-pass effect) | T1/2z ([2]; oral route) [h] | Tmax ([2]; oral route) [h] | bioavailability ([3]; intranasal (IN) compared with intramuscular (IM)) | intranasal absorption ([3]; intranasal (IN), without any enhancer) | tolerability by the nasal mucosa (redness or pain) [4] | pH [5]
Clc1ccc2nsnc2c1NC1=NCCN1 [Tizanidine, 5-chloro-N-(4,5-dihydro-1H-imidazol-2-yl)-2,1,3-benzothia-diazol-4-amine] | equivalent activity | well and rapidly absorbed | 1 to 2 | 1 to 2 | close to that of intramuscular route (IM) | rapidly absorbed | – | –
Clc1ccc2nsnc2c1NC1=NCCN1 [Tizanidine.HCl] | – | – | – | – | – | – | tolerated by the nasal mucosa without any local side effect | 4.8

— patent EP2338473A1, “Pharmaceutical dosage forms of tizanidine and administration routes thereof” (MDM S.p.A., priority 2009, dated 2011)
